Results: patent US11866431B2, “Bicyclic compounds” (Vivace Therapeutics, Inc., priority 2018, dated 2024)

system: 8XTBD luciferase reporter (YAP reporter) in HEK293T cells; assay: YAP Reporter Assay; type: cell-based; settings: Homo sapiens, HEK-293T; HEK293T cells stably transfected with 8XTBD luciferase reporter and pRLTK; 24-hr incubation; top concentration 3 μM; read-out: Firefly Luciferase IC50
Protocol: HEK293T cells stably transfected with 8XTBD luciferase reporter and pRLTK in 384-well plates were treated with the test compounds, starting from 3 μM (final concentration in assay plate), 1:3 dilution, and 10 points in quadruplicates. Post 24-hr incubation with compounds at 37° C. and 5% CO2, cells were lysed and 8XTBD-driven firefly luciferase and control TK-driven renilla luciferase activities were measured using Promega Dual-Luciferase Reporter Assay System.
Reagents: The reagents used for this study are: DMEM: Invitrogen #11960077, Dual-Glo Luciferase Assay System: Promega-E2980, Puromycin Dihydrochloride: Invitrogen-A1113803, 384-well plate: PerkinElmer-6007480, L-GLUTAMINE: Invitrogen-25030164, Hygromycin B: Invitrogen-10687010, and Penicillin-Streptomycin: Merk-TMS-AB2-C
Media: The media used for this assay were: Culture Medium: DMEM+1 ug/mL puromycin+200 ug/mL hygromycin (with 10% FBS+1 mM L-glutamine); and Assay Medium: DMEM (with 10% FBS+1 mM L-glutamine+1×P/S).
Cell Plating: The appropriate media was warmed at 37° C. by water bath: Culture Medium, Assay Medium, 1*D-PBS, 0.05% trypsin-EDTA. The cells were trypsinized after removing all media, then washed with 1*sterile D-PBS and then with 2 ml 0.05% trypsin-EDTA. The cells were then incubated at RT for one minute. Then 10 ml/75 cm2 flask Assay Medium was added to each flask. Using a 10 ml pipette, the cells were then gently resuspended in the media, until the clumps completely disappeared. The cells were then transferred into 50 ml centrifuge tubes and were centrifuged at 800 rpm for 5 mins. The medium was removed and the cells were resuspended with Assay Medium. An aliquot of cells was used to count the cell density (cells/ml). The cell suspension was then diluted with Assay Medium to a concentration of 6×10^4 cells/ml. 50 ul cells suspension was then plated to 384-well plate (PerkinElmer-6007480), 3×10^3 cells/well and the cells were incubated in an incubator at 37° C. 5% CO2.
Compound Treatment: In the afternoon (incubation of the plate with 3-4 hrs), the test compounds were added by Echo, starting from 3 uM (final concentration in the assay plate), 1:3 dilution, 10 points, quadruplicates. The plate was placed at 37° C. 5% CO2 incubator for 24 hrs.
Detection: The Dual-Glo Luciferase Reagent was prepared by transferring the contents of one bottle of Dual-Glo Luciferase Buffer to one bottle of Dual-Glo Luciferase Substrate to create the Dual-Glo Luciferase Reagent. Mixing was performed by inversion until the substrate was thoroughly dissolved. After mixing, the reagent was aliquoted into 15 ml tubes. In the afternoon (24 hrs post compound treatment), the DMEM+ medium in the 384 well plates were aspirated by Microplate Washer.
Measuring firefly luciferase activity: 20 ul Dual-Glo Luciferase Reagent was added to the 384-well plates. The plates were protected from light to prevent interference with the assay. The plates were shaken for 1 min followed centrifuging plates at 1000 rpm for 30 seconds. After waiting at least 10 minutes, the firefly luminescence was measured by Envision.
Measuring renilla luciferase activity: 20 ul Stop-Glo Reagent was added to the 384-well plates. The plates were shaken for 1 min and then centrifuged at 1000 rpm for 30 seconds. After waiting at least 10 minutes, the renilla luminescence was measured by Envision.
Compound IC50 and maximum inhibition on the firefly luciferase and renilla luciferase activities were reported separately.

Compound	IC50 [nM]
CC(C)NC(=O)c1ccc2c(-c3ccc(C(F)(F)F)cc3)cc(N(C)S(C)(=O)=O)cc2c1 [Compound 53, N-isopropyl-7-(N-methylmethylsulfonamido)-5-(4-(trifluoromethyl)phenyl)-2-naphthamide]	100 to 1000
C[C@H](CCN(C)C)NC(=O)c1ccc2c(-c3ccc(C(F)(F)F)cc3)cccc2c1 [Compound 313, N-[(1R)-3-(dimethylamino)-1-methyl-propyl]-5-[4-(trifluoromethyl)phenyl]naphthalene-2-carboxamide]	100 to 1000
CC(C)NC(=O)c1ccc2c(-c3ccc(C(F)(F)F)cc3)cn3ncnc3c2c1 [Compound 298, N-Isopropyl-6-(4-(trifluoromethyl)phenyl)-[1,2,4]triazolo[5,1-a]isoquinoline-9-carboxamide]	100 to 1000
C[C@@H](NC(=O)c1ccc2c(-c3ccc(C(F)(F)F)cc3)cccc2c1)C1CCC1 [Compound 252, (R)—N-(1-cyclobutylethyl)-5-(4-(trifluoromethyl)phenyl)-2-naphthamide]	100 to 1000
C[C@H](NC(=O)c1ccc2c(-c3ccc(C(F)(F)F)cc3)cccc2c1)c1nccn1C [Compound 253, (S)—N-(1-(1-methyl-1H-imidazol-2-yl)ethyl)-5-(4-(trifluoromethyl)phenyl)-2-naphthamide]	1000 to 3000
C[C@@H](NC(=O)c1ccc2c(-c3ccc(C(F)(F)F)cc3)cccc2c1)c1ccccc1Cl [Compound 206, (R)—N-(1-(2-chlorophenyl)ethyl)-5-(4-(trifluoromethyl)phenyl)-2-naphthamide]	< 100
CC(C)N1CC([C@H](C)NC(=O)c2ccc3c(-c4ccc(C(F)(F)F)cc4)cccc3c2)C1 [Compound 143, N-[(1S)-1-(1-isopropylazetidin-3-yl)ethyl]-5-[4-(trifluoromethyl)phenyl]naphthalene-2-carboxamide]	1000 to 3000
COC(=O)c1ccc2c(-c3ccc(C(F)(F)F)cc3)cnc(O)c2c1 [Compound 14, Methyl 1-oxo-4-[4-(trifluoromethyl)phenyl]-2H-isoquinoline-7-carboxylate]	< 100
CC(C)NC(=O)c1ccc2c(-c3ccc(C(F)(F)F)cc3)ccc(N(C)S(C)(=O)=O)c2c1 [Compound 34, N-isopropyl-8-(N-methylmethylsulfonamido)-5-(4-(trifluoromethyl)phenyl)-2-naphthamide]	1000 to 3000
O=C(N[C@@H](CCO)c1ccccn1)c1ccc2c(-c3ccc(C(F)(F)F)cc3)cccc2c1 [Compound 164, (S)—N-(3-hydroxy-1-(pyridin-2-yl)propyl)-5-(4-(trifluoromethyl)phenyl)-2-naphthamide]	< 100
C#Cc1cc(-c2ccc(C(F)(F)F)cc2)c2ccc(C(=O)NC(C)C)cc2c1 [Compound 38, 7-ethynyl-N-isopropyl-5-(4-(trifluoromethyl)phenyl)-2-naphthamide]	< 100
O=C(NC(CCO)CCO)c1cnc2c(-c3ccc(C(F)(F)F)cc3)cccc2c1 [Compound 160, N-(1,5-dihydroxypentan-3-yl)-8-(4-(trifluoromethyl)phenyl)quinoline-3-carboxamide]	1000 to 3000
COc1cc(-c2ccc(C(F)(F)F)cc2)c2ccc(C(=O)N[C@@H](C)c3ccccn3)cc2c1 [Compound 292, (S)-7-Methoxy-N-(1-(pyridin-2-yl)ethyl)-5-(4-(trifluoromethyl)phenyl)-2-naphthamide]	< 100
COc1cc(-c2ccc(C(F)(F)F)cc2F)c2ncc(C(=O)N[C@H](C)CO)cc2c1 [Compound 233, (R)-8-(2-Fluoro-4-(trifluoromethyl)phenyl)-N-(1-hydroxypropan-2-yl)-6-methoxyquinoline-3-carboxamide]	< 100
CC(C)NC(=O)c1ccc2c(-c3ccc(C(F)(F)F)cc3)cc(Cl)cc2c1 [Compound 36, 7-chloro-N-isopropyl-5-(4-(trifluoromethyl)phenyl)-2-naphthamide]	< 100
COCCC(=O)Nc1cccc(CNC(=O)c2ccc3c(-c4ccc(C(F)(F)F)cc4)cccc3c2)c1 [Compound 234, N-(3-(3-methoxypropanamido)benzyl)-5-(4-(trifluoromethyl)phenyl)-2-naphthamide]	< 100
COC[C@@H](C)NC(=O)c1cnc2c(-c3ccc(C(F)(F)F)cc3)cc(OC)cc2c1 [Compound 107, 6-methoxy-N-[(1R)-2-methoxy-1-methyl-ethyl]-8-[4-(trifluoromethyl)phenyl]quinoline-3-carboxamide]	< 100
CCS(=O)(=O)NC(=O)c1ccc2c(-c3ccc(C(F)(F)F)cc3)cccc2c1 [Compound 78, N-(ethylsulfonyl)-5-(4-(trifluoromethyl)phenyl)-2-naphthamide]	100 to 1000
CCc1cc(-c2ccc(C(F)(F)F)cc2)c2ccc(C(=O)NC(C)C)cc2c1 [Compound 47, 7-ethyl-N-isopropyl-5-(4-(trifluoromethyl)phenyl)-2-naphthamide]	< 100
COC[C@@H](C)NC(=O)c1cnc2c(-c3ccc(C(F)(F)F)cc3)cccc2c1 [Compound 100, (R)—N-(1-methoxypropan-2-yl)-8-(4-(trifluoromethyl)phenyl)quinoline-3-carboxamide]	100 to 1000
COc1cc(-c2ccc(C(F)(F)F)cc2)c2ccc(C(=O)N[C@H](C)CO)cc2c1 [Compound 297, (R)—N-(1-Hydroxypropan-2-yl)-7-methoxy-5-(4-(trifluoromethyl)phenyl)-2-naphthamide]	< 100
COCCOCCNC(=O)c1ccc2c(-c3ccc(C(F)(F)F)cc3)cccc2c1 [Compound 57, N-(2-(2-methoxyethoxy)ethyl)-5-(4-(trifluoromethyl)phenyl)-2-naphthamide]	100 to 1000
CC(=O)N1CC([C@@H](C)NC(=O)c2ccc3c(-c4ccc(C(F)(F)F)cc4)cccc3c2)C1 [Compound 199, (R)—N-(1-(1-acetylazetidin-3-yl)ethyl)-5-(4-(trifluoromethyl)phenyl)-2-naphthamide]	100 to 1000
C[C@@H](NC(=O)c1ccc2c(-c3ccc(C(F)(F)F)cc3)cccc2c1)c1cccc2cn[nH]c12 [Compound 182, N-[(1R)-1-(1H-indazol-7-yl)ethyl]-5-[4-(trifluoromethyl)phenyl]naphthalene-2-carboxamide]	< 100
CCNS(=O)(=O)c1ccc2c(-c3ccc(C(F)(F)F)cc3)cccc2c1 [Compound 5, N-ethyl-5-(4-(trifluoromethyl)phenyl)naphthalene-2-sulfonamide]	< 100
CS(=O)(=O)NC(=O)c1cnc2c(-c3ccc(C(F)(F)F)cc3)cc(Cl)c(Cl)c2c1 [Compound 96, 5,6-dichloro-N-(methylsulfonyl)-8-(4-(trifluoromethyl)phenyl)quinoline-3-carboxamide]	100 to 1000
CC(C)NS(=O)(=O)c1ccc2c(-c3ccc(C(F)(F)F)cc3)cccc2c1 [Compound 6, N-isopropyl-5-(4-(trifluoromethyl)phenyl)naphthalene-2-sulfonamide]	100 to 1000
N#Cc1cccc(CNC(=O)c2ccc3c(-c4ccc(C(F)(F)F)cc4)cccc3c2)c1 [Compound 215, N-(3-cyanobenzyl)-5-(4-(trifluoromethyl)phenyl)-2-naphthamide]	< 100
CC(C)NC(=O)c1ccc2c(-c3ccc(C(F)(F)F)cc3)cc([S+](C)[O-])cc2c1 (centres unmarked) [Compound 45, N-isopropyl-7-methylsulfinyl-5-[4-(trifluoromethyl)phenyl]naphthalene-2-carboxamide]	100 to 1000
